# Laboratory results reported in patent US7977366B2, “Treating an inflammatory disorder or inhibiting respiratory burst in adherent neutrophils with chemical inhibitors of neutrophil activation” (Cornell Research Foundation, Inc., priority 2003, dated 2011).
# System: p47phox
# Test: Translocation of p47phox subunit to the cell membrane (western blot of membrane fraction)
# Assay type: cell-based, human
# Details: TNF or PMA stimulation
# Excerpt: In an attempt to identify specific steps of the biochemical pathway(s) that are influenced by Comp II, the effect on translocation of phagocyte oxidase (Phox) translocation was examined. Phox is a multi-subunit enzyme complex that generates H2O2 upon activation. Activation of Phox requires an assembly of both membrane associated and cytosolic subunits at the plasma or phagosomal membrane as well as phosphorylation of several subunits. The cytochrome b559 (also known as b558) components of phox (gp91 and gp22) are localized on the membranes of specific granules (Bjerrum et al, “Dual Granule Localization of the Dormant NADPH Oxidase and Cytochrome b559 in Human Neutrophils,” Eur J Haematol 43(1): 67-77 (1989), which is hereby incorporated by reference in its entirety), and recruitment of these subunits to the membrane occurs simultaneously with degranulation. […] The influence of Comp II on the translocation of p47phox subunit, one of the components of NADPH oxidase, to the cell membrane, was examined as follows.
# Neutrophil lysates were prepared as above with 2.5% TritonX-100 lysis buffer (final concentration of 1% TritonX-100 after dilution in plate with residual KRPG). The cell lysate was passed through 26-gauge needle six times to shear DNA and centrifuged at 20,000×g for 15 min to remove cell debris and DNA. […]
smiles,measurement,value
"O=C1CC(c2ccccc2)=NN1c1cccc(Cl)c1 [Comp II, 2-(3-Chloro-phenyl)-5-phenyl-2,4-dihydro-pyrazol-3-one]",activation triggered translocation of phox 47 to the membrane,not inhibited
